We go through two molecules from publication PMC8151276, “An Integrated Approach toward NanoBRET Tracers for Analysis of GPCR Ligand Engagement” (Molecules, 2021).

Holding throughout (assay type): binding
For assay [1], the target named is T1, GABBR2 (Homo sapiens, UniProt O75899).
T1 construct: purchased Promega (in-house HiBiT-GPCR construct library, NanoBRET)
T1 sequence (O75899 42-941): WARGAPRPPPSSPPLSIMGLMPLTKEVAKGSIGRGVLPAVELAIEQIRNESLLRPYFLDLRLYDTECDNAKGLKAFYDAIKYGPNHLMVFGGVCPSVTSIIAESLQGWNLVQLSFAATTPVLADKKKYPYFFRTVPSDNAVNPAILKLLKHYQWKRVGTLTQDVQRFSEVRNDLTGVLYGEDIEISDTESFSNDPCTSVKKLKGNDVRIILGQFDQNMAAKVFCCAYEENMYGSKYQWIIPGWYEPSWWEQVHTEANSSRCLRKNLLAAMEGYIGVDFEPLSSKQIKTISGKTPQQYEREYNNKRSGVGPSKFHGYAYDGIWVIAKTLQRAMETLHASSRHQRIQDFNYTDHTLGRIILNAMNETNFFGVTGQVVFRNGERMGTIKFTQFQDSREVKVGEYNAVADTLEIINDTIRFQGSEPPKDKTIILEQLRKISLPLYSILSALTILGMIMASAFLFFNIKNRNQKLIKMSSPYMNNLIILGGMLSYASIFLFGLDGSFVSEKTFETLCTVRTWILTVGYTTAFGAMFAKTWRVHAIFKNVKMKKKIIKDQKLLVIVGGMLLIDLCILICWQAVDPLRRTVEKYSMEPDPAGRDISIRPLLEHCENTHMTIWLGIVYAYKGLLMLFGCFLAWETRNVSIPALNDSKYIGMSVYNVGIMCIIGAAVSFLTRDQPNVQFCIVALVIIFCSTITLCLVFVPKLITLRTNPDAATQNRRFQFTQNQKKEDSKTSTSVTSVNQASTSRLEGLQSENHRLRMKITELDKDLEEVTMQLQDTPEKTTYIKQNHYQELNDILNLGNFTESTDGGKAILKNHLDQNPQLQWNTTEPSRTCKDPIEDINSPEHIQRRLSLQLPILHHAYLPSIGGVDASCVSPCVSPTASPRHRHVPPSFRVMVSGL
As to the kind of experiment: NanoBRET screen HiBiT-GABBR2 in HEK293. Particulars: GABBR2. On the procedure: (§1) Each tracer candidate was screened across the entire library of HiBiT-GPCR constructs using NanoBRET as the detection modality. As depicted in Figure 4A, the specificity of interactions was evaluated through decrease in BRET due to competitive displacement of a bound tracer by excess parental compound. Each tracer was analyzed for binding to each HiBiT-GPCR fusion in the absence and in the presence of competing parental compound. Briefly, HEK293 cells were transfected with HiBiT-GPCR constructs diluted into promoterless DNA to reduce expression and maximize translocation to the cell surface. Each tracer candidate was then screened at concentrations of 1 μM and 0.1 μM across cells expressing these fusions. Cells were treated for 1.5 h with tracer either alone or in the presence of 20 μM competing parental compound (i.e., control). BRET was measured upon addition of purified LgBiT and subsequent complementation with HiBiT genetically fused to a GPCR. The specificity of interactions was assessed through a decrease in BRET signal due to competitive displacement of the bound tracer. To further gauge the robustness of these interactions, the fold response over the control (i.e., BRETtracer/BRETcontrol) was calculated. We chose a 1.5-fold response, which translates to ≥7-fold signal over noise as the minimal threshold required to score an interaction as positive. […]. Below we highlight the screening results obtained for our exemplary fluorescent tracers based on Clozapine, Amitriptyline and AZD1283.
(§2) HiBiT-GPCR DNA constructs were diluted in 10 mM Tris pH 8 to a final concentration of 0.01 μg/μL, arrayed in 96-well plates and stored at −20 °C. For transfection, HEK293 cells were suspended in Opti-MEM (without phenol red) supplemented with 2% fetal bovine serum (Seradigm) and 100 units/mL penicillin–streptomycin (Gibco) at a final concentration of 220,000 cells/mL and dispensed into white 96-well plates at 90 μL/well. Subsequent transfections and screens were carried using an Agilent Bravo Automated Liquid Handling Platform. First, the 96-well HiBiT DNA arrays were diluted 25-fold in Opti-MEM (without serum or phenol red) to a final concentration of 0.0004 μg/μL and 20 μL of the diluted DNAs were transferred into new 96-well plates. Next, promoterless carrier DNA (1 μg/μL) was diluted 25-fold (0.04 μg/μL) and then dispensed into the diluted arrays at 20 μL/well. Following brief mixing, Viafect transfection reagent (Promega) diluted 16-fold into Opti-MEM was dispensed into the plates at 40 μL/well. After mixing by pipetting, plates were incubated for 10 min on the pipetting station deck. The DNA-transfection reagent complexes were then added to plates containing cells. To facilitate the screen, 10 μL of DNA-transfection reagent complexes were added in duplicates to the top 4 and bottom 4 rows, resulting in two identical 48-well arrays per plate. Plates with transfected cells were incubated for 18–20 h at 37 °C/5% CO2. A screen of each tracer across the entire library using two different concentrations requires duplicate plates of transfected cells. Depending on the number of tracers being screened, transfections can be scaled up using the same ratios. The next day, for each tracer, four 20× screening solutions in tracer dilution buffer (Promega) were prepared: two duplicates at final concentration of 20 μM and two duplicates at a final concentration of 2 μM. A competing unmodified compound was added to one of each duplicate at a final concentration of 400 μM. The four resulting solutions were diluted 4-fold in Opti-MEM without serum or phenol red to generate 5× solutions (5 µM and 0.5 µM tracer +/− 100 μM competing compound). To screen the library, a BioTek MultiFlo FX liquid dispenser was used to dispense 22.5 µL of tracer solution to the top 4 rows and 22.5 µL tracer + competing compound solution to the 4 bottom rows. Plates were briefly mixed on an orbital shaker and incubated for 1.5 h at room temperature. […]

The target in assay [2] is T2, SSTR4 (Homo sapiens, UniProt P31391).
T2 construct: purchased Promega (in-house HiBiT-GPCR construct library, NanoBRET)
T2 sequence (P31391 whole entry): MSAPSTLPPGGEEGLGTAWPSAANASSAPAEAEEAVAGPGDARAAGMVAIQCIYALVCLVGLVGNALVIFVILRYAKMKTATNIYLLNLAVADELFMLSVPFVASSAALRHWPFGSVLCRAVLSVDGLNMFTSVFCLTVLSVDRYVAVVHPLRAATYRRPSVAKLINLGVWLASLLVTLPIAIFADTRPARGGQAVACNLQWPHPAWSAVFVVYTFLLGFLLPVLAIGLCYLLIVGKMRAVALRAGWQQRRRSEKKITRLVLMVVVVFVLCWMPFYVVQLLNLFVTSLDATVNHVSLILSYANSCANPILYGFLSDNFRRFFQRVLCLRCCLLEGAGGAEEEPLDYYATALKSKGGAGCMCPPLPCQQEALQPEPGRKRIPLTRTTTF
The assay can be described thus: NanoBRET screen HiBiT-SSTR4 in HEK293. The note with it: SSTR4. On the procedure:
as §1, §2
For orientation: BRET reads energy transfer from a luciferase to a nearby fluorophore.

Assay [3] concerns the target T3, SMO (Homo sapiens, UniProt Q99835).
T3 construct: purchased Promega (in-house HiBiT-GPCR construct library, NanoBRET)
The assay can be described thus: NanoBRET screen HiBiT-SMO in HEK293. Particulars: SMO. On the procedure:
as §1, §2

Assay [4] concerns the target T4, SSTR2 (Homo sapiens, UniProt P30874).
T4 construct: purchased Promega (in-house HiBiT-GPCR construct library, NanoBRET)
The assay can be described thus: NanoBRET screen HiBiT-SSTR2 in HEK293. Particulars: SSTR2. As for the experimental part: as §1, §2

T3 sequence (Q99835 28-787): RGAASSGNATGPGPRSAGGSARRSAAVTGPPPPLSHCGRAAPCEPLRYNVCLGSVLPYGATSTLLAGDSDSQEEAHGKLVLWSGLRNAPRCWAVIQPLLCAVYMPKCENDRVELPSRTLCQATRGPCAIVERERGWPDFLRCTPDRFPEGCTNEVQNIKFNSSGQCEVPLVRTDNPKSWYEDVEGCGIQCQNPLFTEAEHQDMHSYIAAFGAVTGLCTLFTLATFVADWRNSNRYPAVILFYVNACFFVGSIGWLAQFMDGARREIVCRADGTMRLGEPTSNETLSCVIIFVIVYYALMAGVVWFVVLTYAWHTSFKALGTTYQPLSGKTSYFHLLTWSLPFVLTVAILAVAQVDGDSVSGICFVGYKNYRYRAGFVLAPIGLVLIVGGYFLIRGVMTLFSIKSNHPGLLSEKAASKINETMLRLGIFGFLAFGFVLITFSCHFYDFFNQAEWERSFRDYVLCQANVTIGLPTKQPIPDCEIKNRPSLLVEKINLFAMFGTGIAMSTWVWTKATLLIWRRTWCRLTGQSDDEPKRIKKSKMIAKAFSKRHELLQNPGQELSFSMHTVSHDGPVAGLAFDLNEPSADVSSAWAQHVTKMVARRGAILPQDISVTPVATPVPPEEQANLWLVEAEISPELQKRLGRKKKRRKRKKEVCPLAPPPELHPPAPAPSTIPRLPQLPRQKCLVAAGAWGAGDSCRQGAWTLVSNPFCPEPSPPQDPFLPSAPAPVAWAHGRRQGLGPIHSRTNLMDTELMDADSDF
T4 sequence (P30874 whole entry): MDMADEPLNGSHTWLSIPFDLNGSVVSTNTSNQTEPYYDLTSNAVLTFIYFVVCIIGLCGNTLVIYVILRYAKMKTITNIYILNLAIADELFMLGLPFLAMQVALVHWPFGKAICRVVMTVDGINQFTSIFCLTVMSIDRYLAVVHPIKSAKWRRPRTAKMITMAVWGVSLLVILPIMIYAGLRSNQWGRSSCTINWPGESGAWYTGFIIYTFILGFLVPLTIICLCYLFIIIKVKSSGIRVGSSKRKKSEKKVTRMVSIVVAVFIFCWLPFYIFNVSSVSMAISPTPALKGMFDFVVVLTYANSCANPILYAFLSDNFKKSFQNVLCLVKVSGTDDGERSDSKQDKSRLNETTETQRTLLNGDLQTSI

In the case of `CN1CCN(C2=Nc3cc(Cl)ccc3Nc3ccc(CNC(=O)CCOCCOCCOCCOCCNC(=O)CCc4ccc5n4[B-](F)(F)[N+]4=C(c6ccc[nH]6)C=CC4=C5)cc32)CC1` [Clozapine-b-2-NB590], the “NanoBRET Fold Response” value in assay [1] (0.1μM tracer) is given as 0.96; in assay [1] (1μM tracer), 1.07; in assay [2] (0.1μM tracer) it was 0.97; in assay [2] (1μM tracer), 1.02; in assay [3] (0.1μM tracer), 1.13; in assay [3] (1μM tracer) it was 0.80. For the same molecule, the “NanoBRET Fold Response” value in assay [4] (0.1μM tracer) is 1.03; in assay [4] (1μM tracer), 1.01.

On to `Cc1nc2n(c(=O)c1CCN1CCC(c3noc4cc(F)ccc34)CC1)CCCC2OC(=O)NCCOCCOCCOCCOCCNC(=O)CCc1ccc2n1[B-](F)(F)[N+]1=C(c3ccc[nH]3)C=CC1=C2` (stereo not shown) [Risperidone-2-NB590], for which the “NanoBRET Fold Response” value in assay [1] (tracer 0.1μM) is listed as 1.07; in assay [1] (tracer 1μM), 1.17; in assay [2] (tracer 0.1μM), 1.03; in assay [2] (tracer 1μM) it was 1.04; in assay [3] (tracer 0.1μM) it was 0.86; in assay [3] (tracer 1μM), 1.00. Moreover, the “NanoBRET Fold Response” value in assay [4] (tracer 0.1μM) was 0.98; in assay [4] (tracer 1μM) it was 1.01.
